Test results as given in patent US20260015353A1, “NOVEL COMPOUNDS” (Hoffmann-La Roche Inc., priority 2022, published 2026).

Key:
NLRP3 [1] = target: T1, NLRP3 (Homo sapiens, UniProt Q96P20); assay: THP-1 cells pyroptosis assay (LPS + nigericin, resazurin readout); format: cell-based; design: Seed THP-1 cells (25,000cells/well) containing 1.0 μg/ml LPS; host or cells: THP-1 cells, LPS-primed, nigericin-stimulated; conditions: 1.0 μg/ml LPS, compound 3 hours, nigericin 5 μM 1 hr
Procedure: THP-1 cells (ATCC #TIB-202) were grown in RPMI containing L-glutamine (Gibco #11835) supplemented with 1 mM sodium pyruvate (Sigma #S8636) and penicillin (100 units/ml)/streptomycin (0.1 mg/ml) (Sigma #P4333) in 10% Fetal Bovine Serum (FBS) (Sigma #F0804). The cells were routinely passaged and grown to confluency (˜10^6cells/ml). On the day of the experiment, THP-1 cells were harvested and resuspended into RPMI medium (without FBS). The cells were then counted and viability (>90%) checked by Trypan blue (Sigma #T8154). Appropriate dilutions were made to give a concentration of 625,000cells/ml. To this diluted cell solution was added LPS (Sigma #L4524) to give a lug/ml Final Assay Concentration (FAC). 40 μl of the final preparation was aliquoted into each well of a 96-well plate. The plate thus prepared was used for compound screening.
The following method step-by-step assay was followed for compound screening. • 1. Seed THP-1 cells (25,000cells/well) containing 1.0 μg/ml LPS in 40 μl of RPMI medium (without FBS) in 96-well, black walled, clear bottom cell culture plates coated with poly-D-lysine (VWR #734-0317) • 2. Add 5 μl compound (8 points half-log dilution, with 10 μM top dose) or vehicle (DMSO 0.1% FAC) to the appropriate wells • 3. Incubate for 3 hours at 37° C., 5% CO2 • 4. Add 5 μl nigericin (Sigma #N7143) (FAC 5 μM) to all wells • 5. Incubate for 1 hr at 37° C., 5% CO2 • 6. At the end of the incubation period, spin plates at 300×g for 3 mins and remove supernatant • 7. Then add 50 μl of resazurin (Sigma #R^7017) (FAC 100 μM resazurin in RPMI medium without FBS) and incubate plates for a further 1-2 hours at 37° C. and 5% CO2 • 8. Plates were read in an Envision reader at Ex 560 nm and Em 590 nm • 9. IC50 data is fitted to a non-linear regression equation (log inhibitor vs response-variable slope 4-parameters)

NLRP3 [2] = target: T1, NLRP3; assay: Human whole blood IL-1β release assay (LPS + nigericin, AlphaLisa); format: cell-based; design: Human whole blood in Li-heparin tubes was obtained from healthy donors; from tissue; host or cells: human whole blood from healthy donors, LPS-primed, nigericin-stimulated; conditions: 1 ug/ml LPS, compound 3 hours, nigericin 10 μM 1 hr, IL-1β in supernatant
Procedure: For systemic delivery, the ability to inhibit NLRP3 when the compounds are present within the bloodstream is of great importance. For this reason, the NLRP3 inhibitory activity of a number of compounds in human whole blood was investigated in accordance with the following protocol.
Human whole blood in Li-heparin tubes was obtained from healthy donors from a volunteer donor panel. • 1. Plate out 80 μl of whole blood containing lug/ml of LPS in 96-well, clear bottom cell culture plate (Corning #3585) • 2. Add 10 μl compound (8 points half-log dilution with 10 μM top dose) or vehicle (DMSO 0.1% FAC) to the appropriate wells • 3. Incubate for 3 hours at 37° C., 5% CO2 • 4. Add 10 μl nigericin (Sigma #N7143) (10 μM FAC) to all wells • 5. Incubate for 1 hr at 37° C., 5% CO2 • 6. At the end of the incubation period, spin plates at 300×g for 5 mins to pellet cells and remove 20 μl of supernatant and add to 96-well v-bottom plates for IL-1β analysis (note: these plates containing the supernatants can be stored at −80° C. to be analysed at a later date) • 7. IL-1β was measured according to the manufacturer protocol (Perkin Elmer-AlphaLisa IL-1 Kit AL220F-5000) • 8. IC50 data is fitted to a non-linear regression equation (log inhibitor vs response-variable slope 4-parameters)

T1 sequence (Q96P20 whole entry): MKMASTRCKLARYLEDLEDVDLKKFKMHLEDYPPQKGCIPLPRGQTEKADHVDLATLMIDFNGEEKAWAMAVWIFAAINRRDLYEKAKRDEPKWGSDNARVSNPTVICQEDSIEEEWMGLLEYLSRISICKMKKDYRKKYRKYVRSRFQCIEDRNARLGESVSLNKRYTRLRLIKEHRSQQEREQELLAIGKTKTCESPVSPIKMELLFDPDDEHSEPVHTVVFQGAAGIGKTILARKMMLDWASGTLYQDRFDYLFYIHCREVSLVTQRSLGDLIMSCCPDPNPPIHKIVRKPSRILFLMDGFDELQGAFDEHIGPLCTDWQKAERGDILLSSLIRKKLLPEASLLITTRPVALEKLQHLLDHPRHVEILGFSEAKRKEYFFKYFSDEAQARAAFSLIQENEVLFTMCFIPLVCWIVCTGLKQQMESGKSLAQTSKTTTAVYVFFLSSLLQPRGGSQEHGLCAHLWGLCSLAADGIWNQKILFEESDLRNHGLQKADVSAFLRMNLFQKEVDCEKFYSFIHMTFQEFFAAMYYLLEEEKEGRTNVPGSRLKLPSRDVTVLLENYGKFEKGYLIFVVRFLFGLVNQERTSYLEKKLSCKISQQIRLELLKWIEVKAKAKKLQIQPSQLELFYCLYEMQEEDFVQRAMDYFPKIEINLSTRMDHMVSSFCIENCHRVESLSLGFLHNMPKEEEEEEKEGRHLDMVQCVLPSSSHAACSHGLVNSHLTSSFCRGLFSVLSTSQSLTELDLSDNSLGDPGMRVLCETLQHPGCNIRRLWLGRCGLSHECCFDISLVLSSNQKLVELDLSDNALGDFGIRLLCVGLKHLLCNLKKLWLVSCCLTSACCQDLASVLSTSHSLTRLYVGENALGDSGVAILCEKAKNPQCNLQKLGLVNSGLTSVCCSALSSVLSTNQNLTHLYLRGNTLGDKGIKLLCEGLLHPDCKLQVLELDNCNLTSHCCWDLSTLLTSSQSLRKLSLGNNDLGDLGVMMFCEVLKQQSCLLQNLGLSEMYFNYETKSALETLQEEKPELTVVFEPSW

Row | SMILES | IC50 (NLRP3 [1]) [µM] | IC50 (NLRP3 [2]) [µM]
1 | Cc1nc(N2CCC3CCN(C)CC32)nnc1-c1ccc(C#N)cc1O (single isomer, unassigned) [Example 4B, 4-[3-[(3aR,7aS)-6-Methyl-3,3a,4,5,7,7a-hexahydro-2H-pyrrolo[2,3-c]pyridin-1-yl]-5-methyl-1,2,4-triazin-6-yl]-3-hydroxy-benzonitrile or 4-[3-[(3aS,7aR)-6-methyl-3,3a,4,5,7,7a-hexahydro-2H-pyrrolo[2,3-c]pyridin-1-yl]-5-methyl-1,2,4-triazin-6-yl]-3-hydroxy-benzonitrile] | > 1 | 
2 | CCN1CCC2CCN(c3nnc(-c4ccc5c(c4O)CCO5)c(C)n3)C2C1 (single isomer, unassigned) [Example 1B, 5-[3-[(3aR,7aS)-6-Ethyl-3,3a,4,5,7,7a-hexahydro-2H-pyrrolo[2,3-c]pyridin-1-yl]-5-methyl-1,2,4-triazin-6-yl]-2,3-dihydrobenzofuran-4-ol or 5-[3-[(3aS,7aR)-6-ethyl-3,3a,4,5,7,7a-hexahydro-2H-pyrrolo[2,3-c]pyridin-1-yl]-5-methyl-1,2,4-triazin-6-yl]-2,3-dihydrobenzofuran-4-ol] | 0.0644 | 0.375
3 | Cc1nc(N2CC[C@@H]3CCN(C)C[C@@H]32)nnc1-c1ccc(C#N)cc1O (single isomer, unassigned) [Example 4A, 4-[3-[(3aS,7aR)-6-Methyl-3,3a,4,5,7,7a-hexahydro-2H-pyrrolo[2,3-c]pyridin-1-yl]-5-methyl-1,2,4-triazin-6-yl]-3-hydroxy-benzonitrile or 4-[3-[(3aR,7aS)-6-methyl-3,3a,4,5,7,7a-hexahydro-2H-pyrrolo[2,3-c]pyridin-1-yl]-5-methyl-1,2,4-triazin-6-yl]-3-hydroxy-benzonitrile] | 0.0474 | 0.041
4 | CCN1CC[C@H]2CCN(c3nnc(-c4ccc(C#N)cc4O)c(C)n3)[C@H]2C1 (single isomer, unassigned) [Example 2A, 4-[3-[(3aS,7aR)-6-Ethyl-3,3a,4,5,7,7a-hexahydro-2H-pyrrolo[2,3-c]pyridin-1-yl]-5-methyl-1,2,4-triazin-6-yl]-3-hydroxy-benzonitrile or 4-[3-[(3aR,7aS)-6-ethyl-3,3a,4,5,7,7a-hexahydro-2H-pyrrolo[2,3-c]pyridin-1-yl]-5-methyl-1,2,4-triazin-6-yl]-3-hydroxy-benzonitrile] | 0.0364 | 0.038
5 | Cc1nc(N2CCC3CCN(C)CC32)nnc1-c1ccc2c(c1O)CCO2 (single isomer, unassigned) [Example 3B, 5-[3-[(3aR,7aS)-6-Methyl-3,3a,4,5,7,7a-hexahydro-2H-pyrrolo[2,3-c]pyridin-1-yl]-5-methyl-1,2,4-triazin-6-yl]-2,3-dihydrobenzofuran-4-ol or 5-[3-[(3aS,7aR)-6-methyl-3,3a,4,5,7,7a-hexahydro-2H-pyrrolo[2,3-c]pyridin-1-yl]-5-methyl-1,2,4-triazin-6-yl]-2,3-dihydrobenzofuran-4-ol] | 0.0522 | 0.115
6 | Cc1nc(N2CC[C@@H]3CCN(C)C[C@@H]32)nnc1-c1ccc2c(c1O)CCO2 (single isomer, unassigned) [Example 3A, 5-[3-[(3aS,7aR)-6-Methyl-3,3a,4,5,7,7a-hexahydro-2H-pyrrolo[2,3-c]pyridin-1-yl]-5-methyl-1,2,4-triazin-6-yl]-2,3-dihydrobenzofuran-4-ol or 5-[3-[(3aR,7aS)-6-methyl-3,3a,4,5,7,7a-hexahydro-2H-pyrrolo[2,3-c]pyridin-1-yl]-5-methyl-1,2,4-triazin-6-yl]-2,3-dihydrobenzofuran-4-ol] | 0.0019 | 0.007
7 | CCN1CCC2CCN(c3nnc(-c4ccc5c(c4O)CCO5)c(C)n3)C2C1 (single isomer, unassigned) [Example 1A, 5-[3-[(3aS,7aR)-6-Ethyl-3,3a,4,5,7,7a-hexahydro-2H-pyrrolo[2,3-c]pyridin-1-yl]-5-methyl-1,2,4-triazin-6-yl]-2,3-dihydrobenzofuran-4-ol or 5-[3-[(3aR,7aS)-6-ethyl-3,3a,4,5,7,7a-hexahydro-2H-pyrrolo[2,3-c]pyridin-1-yl]-5-methyl-1,2,4-triazin-6-yl]-2,3-dihydrobenzofuran-4-ol] | 0.0018 | 0.012
8 | CCN1CCC2CCN(c3nnc(-c4ccc(C#N)cc4O)c(C)n3)C2C1 (single isomer, unassigned) [Example 2B, 4-[3-[(3aR,7aS)-6-Ethyl-3,3a,4,5,7,7a-hexahydro-2H-pyrrolo[2,3-c]pyridin-1-yl]-5-methyl-1,2,4-triazin-6-yl]-3-hydroxy-benzonitrile or 4-[3-[(3aS,7aR)-6-ethyl-3,3a,4,5,7,7a-hexahydro-2H-pyrrolo[2,3-c]pyridin-1-yl]-5-methyl-1,2,4-triazin-6-yl]-3-hydroxy-benzonitrile] | > 1 | 
